Experimental data taken from patent US9340590B2 (priority 2011, dated 2016).
Where “and” joins values, the source holds several entries; their conditions need not be identical. Equal values may be shown once. Entries after “also recorded” stand apart in the source; their conditions may differ. Read-outs that look alike come from different tables or passages of the source.

Legend:
hNav1.7 [1] = biological target: T1, hNav1.7 (Homo sapiens, UniProt Q15858); assay: cell-based; format: cell-based
hNav1.5 [2] = biological target: T2, hNav1.5 (Homo sapiens, UniProt Q14524); assay: cell-based; details: IonWorks Quattro; clamped to −110 mV, depolarized to −10 mV, 5 min after compound; n=2; read-out: IWQ Use Nav1.5
T2 sequence (Q14524 whole entry, looked up): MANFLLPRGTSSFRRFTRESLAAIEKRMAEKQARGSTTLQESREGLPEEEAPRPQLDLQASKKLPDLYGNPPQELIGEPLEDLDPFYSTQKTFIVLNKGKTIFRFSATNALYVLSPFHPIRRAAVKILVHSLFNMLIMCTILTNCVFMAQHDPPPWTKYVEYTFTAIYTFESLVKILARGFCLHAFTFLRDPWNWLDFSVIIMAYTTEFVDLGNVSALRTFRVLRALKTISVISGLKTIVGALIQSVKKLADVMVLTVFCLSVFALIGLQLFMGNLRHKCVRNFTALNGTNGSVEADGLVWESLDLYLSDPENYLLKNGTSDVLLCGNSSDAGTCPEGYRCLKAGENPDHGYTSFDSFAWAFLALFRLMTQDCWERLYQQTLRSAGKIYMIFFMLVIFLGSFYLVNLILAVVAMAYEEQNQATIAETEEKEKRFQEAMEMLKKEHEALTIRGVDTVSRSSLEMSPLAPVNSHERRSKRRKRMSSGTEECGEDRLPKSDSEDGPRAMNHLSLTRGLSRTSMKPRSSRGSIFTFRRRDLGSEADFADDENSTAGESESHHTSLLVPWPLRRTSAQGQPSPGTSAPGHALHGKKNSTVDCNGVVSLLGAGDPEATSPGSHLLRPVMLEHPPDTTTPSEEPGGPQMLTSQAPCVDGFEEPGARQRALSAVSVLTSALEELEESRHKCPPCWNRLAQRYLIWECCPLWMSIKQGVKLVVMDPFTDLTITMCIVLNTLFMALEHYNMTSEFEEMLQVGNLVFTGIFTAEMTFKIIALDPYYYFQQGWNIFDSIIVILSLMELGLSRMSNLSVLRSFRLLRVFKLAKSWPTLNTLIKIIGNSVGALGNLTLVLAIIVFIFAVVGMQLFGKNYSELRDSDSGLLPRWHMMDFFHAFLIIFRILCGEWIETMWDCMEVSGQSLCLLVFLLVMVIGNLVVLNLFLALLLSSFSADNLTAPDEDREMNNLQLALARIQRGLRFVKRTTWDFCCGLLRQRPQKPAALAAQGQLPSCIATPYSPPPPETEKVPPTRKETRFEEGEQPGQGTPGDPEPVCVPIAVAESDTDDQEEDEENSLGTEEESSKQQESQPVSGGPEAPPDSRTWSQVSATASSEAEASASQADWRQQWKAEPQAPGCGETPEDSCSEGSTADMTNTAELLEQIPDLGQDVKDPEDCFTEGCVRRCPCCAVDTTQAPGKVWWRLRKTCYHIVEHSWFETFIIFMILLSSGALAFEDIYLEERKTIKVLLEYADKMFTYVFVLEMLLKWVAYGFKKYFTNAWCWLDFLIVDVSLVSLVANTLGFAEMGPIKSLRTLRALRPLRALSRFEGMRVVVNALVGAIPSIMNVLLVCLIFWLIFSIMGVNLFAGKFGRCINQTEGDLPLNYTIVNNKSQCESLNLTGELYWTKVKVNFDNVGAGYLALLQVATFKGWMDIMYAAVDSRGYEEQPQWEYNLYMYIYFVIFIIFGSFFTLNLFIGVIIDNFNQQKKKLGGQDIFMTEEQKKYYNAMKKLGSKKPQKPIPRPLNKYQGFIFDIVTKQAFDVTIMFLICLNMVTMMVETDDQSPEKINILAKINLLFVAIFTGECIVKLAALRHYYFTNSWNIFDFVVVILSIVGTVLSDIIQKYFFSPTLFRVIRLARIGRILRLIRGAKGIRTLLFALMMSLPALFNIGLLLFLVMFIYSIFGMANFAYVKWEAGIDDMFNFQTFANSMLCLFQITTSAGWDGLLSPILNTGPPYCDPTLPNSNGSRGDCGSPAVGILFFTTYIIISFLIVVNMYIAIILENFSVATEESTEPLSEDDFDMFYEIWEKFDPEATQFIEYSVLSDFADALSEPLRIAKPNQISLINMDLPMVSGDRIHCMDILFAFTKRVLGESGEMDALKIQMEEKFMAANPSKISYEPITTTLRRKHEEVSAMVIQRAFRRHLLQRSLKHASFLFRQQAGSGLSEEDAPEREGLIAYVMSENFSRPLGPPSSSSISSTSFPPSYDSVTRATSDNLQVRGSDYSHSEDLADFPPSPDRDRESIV

hNav1.3 [3] = biological target: T3, hNav1.3 (Homo sapiens, UniProt Q9NY46); assay: cell-based; details: IonWorks Quattro; clamped to −110 mV, depolarized to −10 mV, 5 min after compound; n=2; read-out: IWQ Use Nav1.3
T3 sequence (Q9NY46 whole entry, looked up): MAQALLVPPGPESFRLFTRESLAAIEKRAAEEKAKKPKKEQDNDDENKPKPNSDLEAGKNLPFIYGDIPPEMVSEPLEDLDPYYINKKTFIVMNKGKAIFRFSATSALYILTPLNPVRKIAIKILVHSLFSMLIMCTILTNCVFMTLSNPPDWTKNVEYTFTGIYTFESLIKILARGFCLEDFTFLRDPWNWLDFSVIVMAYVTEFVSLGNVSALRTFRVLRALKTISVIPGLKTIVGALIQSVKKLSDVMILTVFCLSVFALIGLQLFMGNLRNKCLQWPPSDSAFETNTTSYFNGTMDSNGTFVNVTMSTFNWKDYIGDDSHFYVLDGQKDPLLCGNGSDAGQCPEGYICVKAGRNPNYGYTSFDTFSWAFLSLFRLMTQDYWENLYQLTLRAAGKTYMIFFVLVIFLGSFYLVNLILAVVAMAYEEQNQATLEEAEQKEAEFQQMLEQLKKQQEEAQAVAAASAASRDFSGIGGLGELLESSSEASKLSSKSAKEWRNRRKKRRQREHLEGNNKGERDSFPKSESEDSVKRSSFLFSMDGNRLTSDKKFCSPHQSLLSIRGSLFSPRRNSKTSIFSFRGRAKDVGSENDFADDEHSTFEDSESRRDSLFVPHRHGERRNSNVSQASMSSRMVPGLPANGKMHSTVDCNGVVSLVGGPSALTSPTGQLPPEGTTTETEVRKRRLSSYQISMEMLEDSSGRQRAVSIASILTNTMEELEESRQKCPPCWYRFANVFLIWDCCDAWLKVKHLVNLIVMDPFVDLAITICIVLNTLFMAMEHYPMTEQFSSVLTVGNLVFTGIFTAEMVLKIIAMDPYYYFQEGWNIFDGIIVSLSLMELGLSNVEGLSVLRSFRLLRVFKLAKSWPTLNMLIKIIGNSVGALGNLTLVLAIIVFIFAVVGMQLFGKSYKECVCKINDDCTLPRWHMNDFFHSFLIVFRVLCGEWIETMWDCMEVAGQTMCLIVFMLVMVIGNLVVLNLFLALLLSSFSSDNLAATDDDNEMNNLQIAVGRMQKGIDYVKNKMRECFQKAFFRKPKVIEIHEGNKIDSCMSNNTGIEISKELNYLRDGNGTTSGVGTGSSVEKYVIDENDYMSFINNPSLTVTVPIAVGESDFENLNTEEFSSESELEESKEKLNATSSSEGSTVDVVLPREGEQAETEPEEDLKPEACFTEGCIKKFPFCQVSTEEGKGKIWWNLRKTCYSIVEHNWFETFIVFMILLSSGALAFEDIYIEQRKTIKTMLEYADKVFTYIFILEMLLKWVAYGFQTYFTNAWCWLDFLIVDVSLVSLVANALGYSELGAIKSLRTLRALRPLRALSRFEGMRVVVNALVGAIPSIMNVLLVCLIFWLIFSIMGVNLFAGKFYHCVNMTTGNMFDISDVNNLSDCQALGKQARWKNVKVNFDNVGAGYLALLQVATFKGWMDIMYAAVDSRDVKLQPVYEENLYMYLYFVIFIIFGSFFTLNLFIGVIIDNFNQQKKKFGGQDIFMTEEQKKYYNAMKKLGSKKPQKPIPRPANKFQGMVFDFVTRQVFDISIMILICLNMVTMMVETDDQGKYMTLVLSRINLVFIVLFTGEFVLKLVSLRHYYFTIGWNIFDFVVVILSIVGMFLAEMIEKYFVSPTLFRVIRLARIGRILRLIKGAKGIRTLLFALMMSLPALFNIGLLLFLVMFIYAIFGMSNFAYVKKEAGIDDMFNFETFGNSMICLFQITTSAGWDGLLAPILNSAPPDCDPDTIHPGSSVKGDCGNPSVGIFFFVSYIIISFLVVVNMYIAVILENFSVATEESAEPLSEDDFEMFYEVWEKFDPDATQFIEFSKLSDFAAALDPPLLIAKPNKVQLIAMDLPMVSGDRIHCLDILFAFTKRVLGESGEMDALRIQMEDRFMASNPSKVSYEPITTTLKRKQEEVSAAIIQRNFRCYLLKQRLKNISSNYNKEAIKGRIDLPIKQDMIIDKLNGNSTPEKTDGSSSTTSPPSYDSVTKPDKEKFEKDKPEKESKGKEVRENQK

hNav1.7 [4] = biological target: T1, hNav1.7; assay: cell-based; details: Nav1.7 Use IC50
hNav1.3 [5] = biological target: T3, hNav1.3; assay: cell-based; format: cell-based; details: Nav1.3 Use IC50
hNav1.5 [6] = biological target: T2, hNav1.5; assay: cell-based
hNav1.2 = hNav1.2 (Homo sapiens, UniProt Q99250); assay: cell-based; details: partially inactivated channels; read-out: IC50 against partially inactivated hNav1.2 channels
hNav1.7 [7] = biological target: T1, hNav1.7; format: cell-based
[8] = tested on: TTX-sensitive Nav channels in mouse DRG neurons; format: cell-based
[9] = tested on: voltage-gated potassium currents; format: cell-based; details: 500 nM; rat DRG neuron, step to 0 mV from −90 mV
fast sodium current = format: cell-based; details: 500 nM; rat DRG neuron, step to 0 mV from −90 mV
hNav1.5 [10] = biological target: T2, hNav1.5; assay: cell-based; details: PatchXpress counterscreen; held at −80 mV, prepulse −120 mV, test step −30 mV; read-out: IC50 against hNav1.5 (counterscreen)
[11] = human plasma, 37° C., incubation time 0 hr (normalisation point)
[12] = mouse plasma, 37° C., incubation time 0 hr (normalisation point)
[13] = tested on: formalin pain model in male CD-1 mice; details: for time spent lifting/licking, first phase / time spent lifting/licking, second phase: third study
[14] = tested on: locomotor activity in male CD-1 mice
[15] = tested on: isolated perfused rabbit heart
[16] = tested on: isolated perfused rabbit heart; remark: listed apart in the source
in vivo [17] = details: CD-1, mouse
in vivo [18] = details: male, CD-1, mouse, sc
in vivo [19] = details: male, CD-1, mouse, sc, terminal exposure (peptide plasma concentration at 2 h post peptide injection)
in vitro [20] = details: human, plasma
in vitro [21] = details: mouse, plasma
hERG = hERG (Homo sapiens, UniProt Q12809); assay: cell-based
Chain of hERG (Q12809 whole entry): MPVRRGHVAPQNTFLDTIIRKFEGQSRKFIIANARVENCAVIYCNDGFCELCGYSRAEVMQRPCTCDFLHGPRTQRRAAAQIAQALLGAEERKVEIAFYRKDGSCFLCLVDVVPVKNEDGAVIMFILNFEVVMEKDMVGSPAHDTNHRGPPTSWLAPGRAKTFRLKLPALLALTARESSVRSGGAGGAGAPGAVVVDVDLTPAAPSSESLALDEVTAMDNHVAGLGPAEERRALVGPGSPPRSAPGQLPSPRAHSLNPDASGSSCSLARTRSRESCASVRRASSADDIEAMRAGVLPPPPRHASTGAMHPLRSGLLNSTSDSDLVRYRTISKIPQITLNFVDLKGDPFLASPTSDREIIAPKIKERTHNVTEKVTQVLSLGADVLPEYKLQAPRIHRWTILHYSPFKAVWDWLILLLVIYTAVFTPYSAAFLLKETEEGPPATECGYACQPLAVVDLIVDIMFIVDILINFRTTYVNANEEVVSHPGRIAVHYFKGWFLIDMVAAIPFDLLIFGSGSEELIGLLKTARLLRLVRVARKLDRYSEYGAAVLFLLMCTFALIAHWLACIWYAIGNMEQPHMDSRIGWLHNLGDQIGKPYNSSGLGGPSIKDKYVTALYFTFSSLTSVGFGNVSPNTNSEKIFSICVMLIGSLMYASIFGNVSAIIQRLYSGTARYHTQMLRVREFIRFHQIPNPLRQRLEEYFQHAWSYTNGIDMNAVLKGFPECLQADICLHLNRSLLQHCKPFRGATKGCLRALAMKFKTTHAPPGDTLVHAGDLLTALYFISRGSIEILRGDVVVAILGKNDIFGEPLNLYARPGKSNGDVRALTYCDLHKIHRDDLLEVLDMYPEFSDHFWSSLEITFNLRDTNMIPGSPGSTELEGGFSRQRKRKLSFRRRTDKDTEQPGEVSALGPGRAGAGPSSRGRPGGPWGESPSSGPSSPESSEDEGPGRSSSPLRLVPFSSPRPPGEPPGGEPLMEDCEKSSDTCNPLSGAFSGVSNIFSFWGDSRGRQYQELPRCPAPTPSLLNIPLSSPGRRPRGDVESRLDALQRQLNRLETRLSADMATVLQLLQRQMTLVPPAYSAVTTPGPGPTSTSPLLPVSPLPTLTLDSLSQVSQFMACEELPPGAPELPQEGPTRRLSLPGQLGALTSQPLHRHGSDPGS

Nav1.3 = Nav1.3 (Rattus norvegicus, UniProt P08104); details: read-out: TTX IC50; cited from earlier work
Nav1.4 = Nav1.4 (Rattus norvegicus, UniProt P15390); details: read-out: TTX IC50; cited from earlier work
Nav1.6 = Nav1.6 (Rattus norvegicus, UniProt O88420); details: read-out: TTX IC50; cited from earlier work
Nav1.7 = Nav1.7 (Rattus norvegicus, UniProt O08562); details: read-out: TTX IC50; cited from earlier work
Nav1.8 = Nav1.8 (Rattus norvegicus, UniProt Q62968); details: read-out: TTX IC50; cited from earlier work
[22] = first study, 5 mg/kg s.c., 1-hour pre-treatment
[23] = later studies (FIGS. 99-110), 5 mg/kg s.c., 1-hour pre-treatment

CC[C@H](C)[C@@H]1NC(=O)[C@@H]2CSSC[C@@H]3NC(=O)[C@H](C(C)C)NC(=O)[C@H](CC(C)C)NC(=O)[C@H](CC(N)=O)NC(=O)[C@@H]4CCCN4C(=O)[C@H](CCCNC(=N)N)NC(=O)[C@H](CSSC[C@H](NC(=O)[C@@H](N)CC(=O)O)C(=O)N[C@@H](CC(C)C)C(=O)NCC(=O)N[C@@H](C)C(=O)N[C@@H](CCSC)C(=O)N[C@@H](CCCNC(=N)N)C(=O)N[C@@H](CCCCN)C(=O)N2)NC(=O)[C@H](CSSC[C@@H](C(=O)N[C@@H](CCCCN)C(=O)N[C@@H](Cc2ccc(O)cc2)C(=O)N[C@H](C(=O)N[C@@H](Cc2ccccc2)C(N)=O)C(C)C)NC(=O)[C@H](Cc2c[nH]c4ccccc24)NC(=O)[C@H](CCCCN)NC(=O)[C@H](Cc2cnc[nH]2)NC(=O)[C@H]([C@@H](C)O)NC(=O)[C@H](CCCNC(=N)N)NC(=O)[C@H](CO)NC3=O)NC(=O)[C@H](CCCCN)NC(=O)[C@H](CC(=O)O)NC(=O)[C@H](CC(N)=O)NC(=O)[C@H](CC(=O)O)NC(=O)[C@@H]2CCCN2C1=O [SEQ ID NO: 22]
IC50 (hNav1.7 [1]): 640 nM
IC50 (hNav1.5 [2]): 10300 nM
IC50 (hNav1.3 [3]): 1750 nM
IC50 (hNav1.7 [4]): 18 nM and 34 nM and 30 nM and 14 nM
IC50 (hNav1.3 [5]): 129 nM and 158 nM
IC50 (hNav1.5 [6]): > 10000 nM
IC50 (hNav1.2): 265 nM
inhibition of the Nav1.7 current (hNav1.7 [7]): complete inhibition
IC50 (hNav1.7 [7]; read-out: IC50 against partially inactivated hNav1.7 channels): 13.2 nM
block of TTX-sensitive Nav current, time course of increasing concentrations [8]: blocked nearly all TTX-sensitive Nav current
block of TTX-sensitive versus TTX-resistant Nav current [8]: selectively blocked TTX-sensitive Nay current but not TTX-resistant Nav current
IC50 ([8]; cells held at −140 mV, read-out: IC50 against TTX-sensitive sodium channels in mDRG neurons): 17 nM
effect on voltage-gated potassium currents [9]: did not block voltage-gated potassium currents
effect on fast sodium current (fast sodium current): blocked fast sodium current; also recorded: steadily decreased
IC50 (hNav1.5 [10]): > 30000 nM
% peptide remaining [11]: 100%
% peptide remaining [12]: 100%
tolerability in mice (1 mg/kg i.v.): tolerated
exposure in blood (1 mg/kg s.c.): measurable exposure
sustained peptide concentration in the plasma (5 mg/kg s.c.): about 0.6 μM
time plasma concentration was sustained (5 mg/kg s.c.): 3 h
plasma concentrations with significant reproducible reduction in paw lifting/licking ([13]; first two mouse formalin experiments): 0.60 to 0.80 µM
time spent lifting and/or licking the affected paw, second phase (5-40 minutes post formalin injection) ([13]; mouse, in vivo): significantly reduced
time spent lifting/licking, first phase ([13]; peptide 1 mg/kg s.c.): appeared to increase
time spent lifting/licking, second phase ([13]; peptide 1 mg/kg s.c.): not significantly different
time spent lifting/licking, first phase ([13]; peptide 3 mg/kg s.c.): appeared to increase
time spent lifting/licking, second phase ([13]; peptide 3 mg/kg s.c.): appeared to significantly increase
total fine movement [14, 22]: significantly reduced
total time rearing [14, 22]: significantly reduced
total basic movement [14, 23]: significantly reduced
total fine movement [14, 23]: significantly reduced
total rearing [14, 23]: significantly reduced
total time rearing [14, 23]: significantly reduced
peptide plasma concentrations resulting in significant effects on locomotor activity ([14]; mouse, in vivo): > 1.5 µM
HR, normalized value, mean [15]: −0.18%
JT, normalized value, mean [15]: −4.57%
JTcF, normalized value, mean [15]: −4.60%
PR, normalized value, mean [15]: −3.52%
QRS, normalized value, mean [15]: −1.55%
QT, normalized value, mean [15]: −4.19%
QTcF, normalized value, mean [15]: −4.22%
heart rate ([15]; 1 μM, 20 minutes): no effects
ventricular depolarization and conduction (QRS and PR intervals) ([15]; 1 μM, 20 minutes): no effects
ventricular repolarization (QTc or JTc intervals) ([15]; 1 μM, 20 minutes): no delaying effects
Flow, mean, normalized value [16]: 0.29%
LVDP, mean, normalized value [16]: −3.16%
LVDevP, normalized value [16]: −7.22%
LVSP, mean, normalized value [16]: −8.81%
dP/dt+, mean, normalized value [16]: −6.55%
dP/dt−, mean, normalized value [16]: −2.93%
LV contractility (dP/dt+) ([16]; 1 μM, 20 minutes): no effects
coronary blood flow (CF) ([16]; 1 μM, 20 minutes): no effects
coronary vasculature ([16]; 1 μM, 20 minutes): no direct effects
half-life (in vivo [17]; sc, 5 mg/kg): 36 min
level at time molar (in vivo [17]; sc, 5 mg/kg): ~600 nM
half-life (in vivo [17]; male, iv, 1 mg/kg): ~15 min
level at time molar at […] (in vivo [18]; 0.5 mg/kg, terminal exposure (peptide plasma concentration at 45 min post formalin injection), second study, 0.5 mg/kg s.c.): 40 nM
level at time molar at […] (in vivo [18]; 1 mg/kg, terminal exposure (peptide plasma concentration at 45 min post formalin injection), third study, 1 mg/kg s.c.): 200 ± 50 nM
level at time molar at […] (in vivo [18]; 3 mg/kg, terminal exposure (peptide plasma concentration at 45 min post formalin injection), third study, 3 mg/kg s.c.): 530 ± 230 nM
level at time molar at […] (in vivo [18]; 5 mg/kg, terminal exposure (peptide plasma concentration at 45 min post formalin injection), second study, 5.0 mg/kg s.c.): 580 ± 260 nM
level at time molar at […] (in vivo [18]; 5 mg/kg, terminal exposure (peptide plasma concentration at 45 min post formalin injection), third study, 5 mg/kg s.c.): 1840 ± 180 nM
level at time molar at […] (in vivo [18]; 5 mg/kg, terminal plasma exposure (peptide plasma concentration at 45 min post formalin injection), first study, 5 mg/kg s.c.): 800 ± 210 nM
level at time molar at 2 h (in vivo [19]; 3 mg/kg, first study, 3 mg/kg s.c.): 890 ± 330 nM
level at time molar at 2 h (in vivo [19]; 5 mg/kg, first study, 5 mg/kg s.c.): 1790 ± 380 nM
level at time molar at 2 h (in vivo [19]; 5 mg/kg, later studies, 5 mg/kg s.c.): 2100 ± 470 nM
remaining at 2 h (in vitro [20]): 105%
remaining at 4 h (in vitro [20]): 99%
remaining at 8 h (in vitro [20]): 101%
remaining at 24 h (in vitro [20]): 105%
remaining at 2 h (in vitro [21]): 106%
remaining at 4 h (in vitro [21]): 107%
remaining at 8 h (in vitro [21]): 105%
remaining at 24 h (in vitro [21]): 99%
IC50 (hERG): > 10000 nM

NC1=N[C@H](O)[C@H]2[C@H]3O[C@]4(O)O[C@@H]([C@@H](O)[C@@]2(N1)[C@@H]4O)[C@]3(O)CO [TTX, tetrodotoxin]
IC50 (Nav1.3): 2 to 15 nM
IC50 (Nav1.4): 5 nM
IC50 (Nav1.6): 1 nM
IC50 (Nav1.7): 4 nM
IC50 (Nav1.8): > 50000 nM
